Reference: US9795590B2, “Anti-inflammatory agents as virostatic compounds” (Panoptes Pharma GmbH, priority 2014, dated 2017)

How the values were obtained:
[1] = molecular target: DHODH (human) (Homo sapiens, UniProt Q02127); experiment: DHODH in vitro enzymatic activity assay (human); assay type: biochemical
Description: (§1) Pharmacological parameters of compound 1 (Table 2) were determined by standard procedures, i.e. DHODH and kinase activity assays were performed according to Davis et al., (1996. The immunosuppressive metabolite of leflunomide is a potent inhibitor of human dihydroorotate dehydrogenase.

[2] = system: HAdV C05; experiment: virus yield assay HAdV C05 in A549; assay type: cell-based, human adenovirus; conditions: MOI 20, supernatant transfer 2 d post-infection, n=4
Description: (§2) A549 cells were infected at MOI 20 and continuously treated with the given concentrations of compound 1. Virus-containing supernatants were transferred to uninfected cells at 4 d^1, 6 d^2 or 2 d^3 post-infection, respectively, and used for quantitation of infectious virus. Percentages of virus-positive cells per total cells were determined on the basis of indirect immunofluorescence staining (monoclonal anti-adenovirus hexon protein antibody; Abcam B025-AD51/ab7428) by microscopic countings: n=4 for C02, C05, D19, D37; n=3 for B03k, E04k; n=1 for A31, B03, D08, E04.

[3] = system: HAdV B03k; experiment: virus yield assay HAdV B03k (clinical isolate) in A549; assay type: cell-based, human adenovirus; conditions: MOI 20, supernatant transfer 6 d post-infection, n=3
Description: as §2

[4] = system: HSV-2, herpes simplex virus type 2, isolate 01-6332; experiment: antiviral assay HSV-2 in Vero; assay type: cell-based; conditions: Human alphaherpesvirus 2, n = 4, read-out: IC50 of virus replication HSV-2
Description: (§3) Antiviral assays were performed as described in the literature (Marschall, M. et al., 2000. Antimicrob. Agents Chemother. 44, 1588-1597; Marschall M. et al., 2012. Antimicrob. Agents Chemother. 56, 1135-1137; Kindsmüller et al., 2009. J. Virol. 83, 9045-9056; Rechter et al., 2006. Antiviral Res. 72, 197-206).

[5] = molecular target: DHODH (mouse) (Mus musculus, UniProt O35435); experiment: DHODH in vitro enzymatic activity assay (mouse); assay type: biochemical; conditions: read-out: Inhibitory activity in vitro (IC50) DHODH (mouse)
Sequence of DHODH (mouse) (O35435 whole entry): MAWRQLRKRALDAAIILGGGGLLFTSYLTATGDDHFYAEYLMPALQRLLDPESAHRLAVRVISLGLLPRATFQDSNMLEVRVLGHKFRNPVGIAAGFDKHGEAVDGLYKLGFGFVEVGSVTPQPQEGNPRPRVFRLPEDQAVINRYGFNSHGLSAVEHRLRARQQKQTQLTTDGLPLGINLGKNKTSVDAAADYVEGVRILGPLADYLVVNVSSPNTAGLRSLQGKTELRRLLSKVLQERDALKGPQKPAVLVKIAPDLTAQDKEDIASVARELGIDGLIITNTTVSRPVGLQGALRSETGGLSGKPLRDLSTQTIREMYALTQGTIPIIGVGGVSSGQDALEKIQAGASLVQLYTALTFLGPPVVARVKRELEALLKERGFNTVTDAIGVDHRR

[6] = system: Vero; experiment: drug-induced cytotoxicity, microscopic evaluation, Vero; assay type: cell-based
[7] = system: EBV, Epstein-Barr virus, strain B95-8; experiment: antiviral assay EBV in 293T (T81GFP); assay type: cell-based; conditions: human gammaherpesvirus 4, n = 4, read-out: IC50 of virus replication EBV
Description: as §3

[8] = molecular target: AKT-1/-2/-3; experiment: kinase activity assay AKT; assay type: biochemical; conditions: read-out: Inhibitory activity in vitro (IC50) AKT-1/-2/-3
Description: as §1

[9] = system: HAdV C02; experiment: virus yield assay HAdV C02 in A549; assay type: cell-based, human adenovirus; conditions: MOI 20, supernatant transfer 2 d post-infection, n=4
Description: as §2

[10] = system: 293T (T81GFP); experiment: drug-induced cytotoxicity, microscopic evaluation, 293T (T81GFP); assay type: cell-based; conditions: EBV experiment
[11] = system: Human adenovirus type 2 (HAdV-2); experiment: plaque reduction assay HAdV-2 in A549; assay type: cell-based; conditions: Human mastadenovirus C, A549, n = 8, read-out: IC50 antiviral activity against HAdV-2
Description: as §3

[12] = system: HAdV D08; experiment: virus yield assay HAdV D08 in A549; assay type: cell-based, human adenovirus; conditions: MOI 20, supernatant transfer 4 d post-infection, n=1
Description: as §2

[13] = system: HHV-6, human herpesvirus type 6A, strain U1102; experiment: antiviral assay HHV-6 in J-JHAN; assay type: cell-based; conditions: n = 8, read-out: IC50 of virus replication HHV-6
Description: as §3

[14] = system: HAdV D37; experiment: virus yield assay HAdV D37 in A549; assay type: cell-based, human adenovirus; conditions: MOI 20, supernatant transfer 6 d post-infection, n=4
Description: as §2

[15] = system: HAdV E04; experiment: virus yield assay HAdV E04 in A549; assay type: cell-based, human adenovirus; conditions: MOI 20, supernatant transfer 6 d post-infection, n=1
Description: as §2

[16] = system: A549; experiment: drug-induced cytotoxicity, microscopic evaluation, A549; assay type: cell-based; conditions: HAdV-2 experiment, A549, 1-10 μM
[17] = system: primary human fibroblasts; experiment: drug-induced cytotoxicity, microscopic evaluation, primary human fibroblasts; assay type: cell-based
[18] = system: HAdV D19; experiment: virus yield assay HAdV D19 in A549; assay type: cell-based, human adenovirus; conditions: MOI 20, supernatant transfer 4 d post-infection, n=4
Description: as §2

[19] = molecular target: JAK-1/-2/-3; experiment: kinase activity assay JAK; assay type: biochemical; conditions: read-out: Inhibitory activity in vitro (IC50) JAK-1/-2/-3
Description: as §1

[20] = system: J-JHAN; experiment: drug-induced cytotoxicity, microscopic evaluation, J-JHAN; assay type: cell-based; conditions: HHV-6 experiment
[21] = molecular target: PI3K-α/-β/-γ/-δ; experiment: kinase activity assay PI3K; assay type: biochemical; conditions: read-out: Inhibitory activity in vitro (IC50) PI3K-α/-β/-γ/-δ
Description: as §1

[22] = system: HAdV A31; experiment: virus yield assay HAdV A31 in A549; assay type: cell-based, human adenovirus; conditions: MOI 20, supernatant transfer 4 d post-infection, n=1
Description: as §2

[23] = system: HAdV E04k; experiment: virus yield assay HAdV E04k (clinical isolate) in A549; assay type: cell-based, human adenovirus; conditions: MOI 20, supernatant transfer 6 d post-infection, n=3
Description: as §2

[24] = system: HSV-1, herpes simplex virus type 1, strain 166v VP22-GFP; experiment: GFP-based reporter assay HSV-1 in Vero; assay type: cell-based; conditions: Human alphaherpesvirus 1, Vero, read-out: IC50 of virus replication HSV-1
Description: as §3

[25] = system: HAdV B03; experiment: virus yield assay HAdV B03 in A549; assay type: cell-based, human adenovirus; conditions: MOI 20, supernatant transfer 6 d post-infection, n=1
Description: as §2

[26] = system: Vaccina (vaccine virus, strain IHD-5); experiment: antiviral assay vaccinia virus in primary human fibroblasts; assay type: cell-based; conditions: Orthopoxvirus vaccinia, Fibroblast, read-out: IC50 of virus replication Vaccina
Description: as §3

[27] = system: VZV, varicella zoster virus, strain Oka; experiment: antiviral assay VZV in primary human fibroblasts; assay type: cell-based; conditions: Human alphaherpesvirus 3, Fibroblast, read-out: IC50 of virus replication VZV
Description: as §3

Sequence of DHODH (human) (Q02127 whole entry): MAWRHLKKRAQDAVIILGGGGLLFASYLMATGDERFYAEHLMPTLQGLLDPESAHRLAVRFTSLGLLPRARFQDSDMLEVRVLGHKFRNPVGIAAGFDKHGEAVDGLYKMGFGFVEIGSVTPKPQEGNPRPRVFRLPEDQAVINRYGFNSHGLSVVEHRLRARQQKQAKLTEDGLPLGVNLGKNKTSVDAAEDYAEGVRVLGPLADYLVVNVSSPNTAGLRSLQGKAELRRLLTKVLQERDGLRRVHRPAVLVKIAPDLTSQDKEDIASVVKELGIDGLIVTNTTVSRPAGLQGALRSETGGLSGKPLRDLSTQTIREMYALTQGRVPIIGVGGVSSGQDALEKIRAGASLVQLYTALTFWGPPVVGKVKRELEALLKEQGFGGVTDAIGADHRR

## Nc1nc2c(ncn2COC(CO)CO)c(=O)[nH]1 [GCV, reference compound]
[1]; at 10 μM, duplicate testings
  DHODH activity remaining: 100%

## O=C(Nc1c(F)c(F)c(-c2cccc(OC(F)(F)F)c2)c(F)c1F)c1ccsc1C(=O)O [compound 1, 3-(2,3,5,6-tetrafluoro-3′-trifluoromethoxy-biphenyl-4-ylcarbamoyl)-thiophene-2-carboxylic acid]
[2]; 0.37 μM
  virus-positive cells (0 μM = 100), HAdV C05: 82%
[2]; 1.11 μM
  virus-positive cells (0 μM = 100), HAdV C05: 6%
[3]; 0.37 μM
  virus-positive cells (0 μM = 100), HAdV B03k: 70%
[3]; 1.11 μM
  virus-positive cells (0 μM = 100), HAdV B03k: 11%
[4]
  IC50: > 10000 nM
[5]
  IC50: 3.2 ± 0.8 nM
[6]; HSV-1 experiment
  Cytotoxicity [1-10 μM]: none
[6]; HSV-2 experiment
  Cytotoxicity [1-10 μM]: none
[7]
  IC50: > 10000 nM
[8]
  IC50: > 15000 nM
[9]; 0.37 μM
  virus-positive cells (0 μM = 100), HAdV C02: 100%
[9]; 1.11 μM
  virus-positive cells (0 μM = 100), HAdV C02: 9%
[10]
  Cytotoxicity [1-10 μM]: none
[11]
  IC50: 560 ± 20 nM
[12]; 0.37 μM
  virus-positive cells (0 μM = 100), HAdV D08: 6%
[12]; 1.11 μM
  virus-positive cells (0 μM = 100), HAdV D08: 0%
[13]
  IC50: 1550 ± 310 nM
[14]; 0.37 μM
  virus-positive cells (0 μM = 100), HAdV D37: 96%
[14]; 1.11 μM
  virus-positive cells (0 μM = 100), HAdV D37: 3%
[15]; 0.37 μM
  virus-positive cells (0 μM = 100), HAdV E04: 128%
[15]; 1.11 μM
  virus-positive cells (0 μM = 100), HAdV E04: 23%
[16]
  Cytotoxicity [1-10 μM]: None
[16]; listed as Compound 1
  Cytotoxicity [1-10 μM]: none
[1]; purified human DHODH, read-out: Inhibitory activity in vitro (IC50) DHODH (human)
  IC50: 1.5 ± 0.2 nM
[17]; VZV experiment
  Cytotoxicity [1-10 μM]: none
[17]; Vaccina experiment
  Cytotoxicity [1-10 μM]: none
[18]; 0.37 μM
  virus-positive cells (0 μM = 100), HAdV D19: 81%
[18]; 1.11 μM
  virus-positive cells (0 μM = 100), HAdV D19: 4%
[19]
  IC50: > 10000 nM
[20]
  Cytotoxicity [1-10 μM]: none
[21]
  IC50: > 1000 nM
[22]; 0.37 μM
  virus-positive cells (0 μM = 100), HAdV A31: 72%
[22]; 1.11 μM
  virus-positive cells (0 μM = 100), HAdV A31: 3%
[23]; 0.37 μM
  virus-positive cells (0 μM = 100), HAdV E04k: 115%
[23]; 1.11 μM
  virus-positive cells (0 μM = 100), HAdV E04k: 9%
[24]
  IC50: > 10000 nM
[25]; 0.37 μM
  virus-positive cells (0 μM = 100), HAdV B03: 127%
[25]; 1.11 μM
  virus-positive cells (0 μM = 100), HAdV B03: 29%
[26]
  IC50: 9850 ± 6610 nM
[27]
  IC50: 3550 ± 260 nM
